Values joined by “and” are separate entries in the source; they are usually repeats but may differ in a detail not shown here. Identical values can stand only once. Like-named read-outs stand apart in the source and are kept apart here.
Tests used:
[1] = pH 7.4
[2] = system: human myeloma cell line derived from the ascites of a patient with multiple myeloma; conditions: mouse, in vivo
physchem = conditions: water
[3] = system: Human Gastric Cancer HGC-27 cell; assay: cells; assay type: cell-based; conditions: for EC50: Homo sapiens, HGC-27, 72 h, read-out: EC50, HGC-27 cell growth inhibition; for HGC-27 cell growth inhibition rate: 72 hours

## Br.CCN(CC)CCOC(=O)[C@H](Cc1ccc(N(CCCl)CCCl)cc1)NC(C)=O [4-[bis(2-chloroethyl)amino]-N-acetyl-L-phenylalanine N,N-diethylaminoethyl ester hydrobromide]
[1]; human
  In vitro penetration rate (apparent flux) of HPPs: 1.10 mg/cm^2/h
[2]; hydrobromide
  Life Elongation Rate: 287% and 266%
  None Disease Rate: 4/7 and 3/7
  Survival Period: 130.5 ± 1.6 days and 121.2 ± 1.8 days
physchem
  solubility: 300 mg/mL

## CS(=O)(=O)CCN(CCS(C)(=O)=O)c1ccc(CCCC(=O)O)cc1 [4-[bis(2-methylsulfonylethyl)amino]benzenebutanoic acid]
[1]; human
  In vitro penetration rate (apparent flux) of parent compounds: 0.01 mg/cm^2/h

## Br.CCN(CC)CCOC(=O)CCCc1ccc(N(CCCl)CCCl)cc1 [N,N-diethylaminoethyl 4-[bis(2-chloroethyl)amino]benzenebutyrate.HBr]
[1]
  In vitro penetration rate (apparent flux) of HPPs: 1.01 mg/cm^2/h
[2]
  Life Elongation Rate: 282% and 253%
  None Disease Rate: 4/7
  Survival Period: 128.5 ± 1.3 days and 115.2 ± 2.1 days

## CCN(CC)CCOC(=O)CCCc1ccc(N(CCCl)CCCl)cc1 [N,N-diethylaminoethyl 4-[bis(2-chloroethyl)amino]benzenebutyrate]
[3]
  EC50: < 6 µM
[3]; final concentration 0.5 μm
  HGC-27 cell growth inhibition rate: 25.5%
[3]; final concentration 2 μm
  HGC-27 cell growth inhibition rate: 34.7%
[3]; final concentration 5 μm
  HGC-27 cell growth inhibition rate: 46.9%
[3]; final concentration 25 μm
  HGC-27 cell growth inhibition rate: 54.6%
[3]; final concentration 50 μm
  HGC-27 cell growth inhibition rate: 81.6%
[3]; final concentration 75 μm
  HGC-27 cell growth inhibition rate: 93.4%
[3]; final concentration 100 μm
  HGC-27 cell growth inhibition rate: 94.7%
[3]; final concentration 200 μm
  HGC-27 cell growth inhibition rate: 94.8%
[3]; final concentration 500 μm
  HGC-27 cell growth inhibition rate: 94.8%

## O=C(O)CCCc1ccc(N(CCCl)CCCl)cc1 [chlorambucil]
[3]
  EC50: > 100 µM
[3]; final concentration 2 μm
  HGC-27 cell growth inhibition rate: 0.3%
[3]; final concentration 5 μm
  HGC-27 cell growth inhibition rate: 1.6%
[3]; final concentration 25 μm
  HGC-27 cell growth inhibition rate: 25.0%
[3]; final concentration 50 μm
  HGC-27 cell growth inhibition rate: 34.9%
[3]; final concentration 75 μm
  HGC-27 cell growth inhibition rate: 34.2%
[3]; final concentration 100 μm
  HGC-27 cell growth inhibition rate: 39.2%
[3]; final concentration 200 μm
  HGC-27 cell growth inhibition rate: 47.7%
[3]; final concentration 500 μm
  HGC-27 cell growth inhibition rate: 81.0%
[1]; human
  In vitro penetration rate (apparent flux) of parent compounds: 0.01 mg/cm^2/h
[2]
  Life Elongation Rate: 127% and 198%
  None Disease Rate: 2/7 and 3/7
  Survival Period: 57.8 ± 1.5 days and 90.2 ± 1.9 days

## CCN(CC)CCOC(=O)CCCc1ccc(N(CCS(C)(=O)=O)CCS(C)(=O)=O)cc1.Cl [diethylaminoethyl 4-[bis(2-methylsulfonylethyl)amino]benzenebutyrate.HCl]
[2]
  Life Elongation Rate: 269% and 244%
  None Disease Rate: 4/7 and 3/7
  Survival Period: 122.5 ± 1.7 days and 111.2 ± 1.9 days

## Br.CCN(CC)CCOC(=O)CCCc1ccc(N(CCS(C)(=O)=O)CCS(C)(=O)=O)cc1 [diethylaminoethyl 4-[bis(2-methylsulfonylethyl)amino]benzenebutyrate•HBr]
[1]
  In vitro penetration rate (apparent flux) of HPPs: 0.94 mg/cm^2/h

## N[C@@H](Cc1ccc(N(CCCl)CCCl)cc1)C(=O)O [melphalan]
[1]; human
  In vitro penetration rate (apparent flux) of parent compounds: 0.01 mg/cm^2/h
[2]
  Life Elongation Rate: 195% and 122%
  Survival Period: 88.5 ± 1.8 days and 55.7 ± 1.3 days

## CC(=O)O[C@H]1C(=O)[C@@]2(C)[C@H]([C@H](OC(=O)c3ccccc3)[C@]3(O)C[C@H](OC(=O)[C@H](O)[C@@H](NC(=O)c4ccccc4)c4ccccc4)C(C)=C1C3(C)C)[C@]1(OC(C)=O)CO[C@@H]1C[C@@H]2O [taxol, Taxol]
[3]
  EC50: ~0.013 µM
[3]; final concentration 0.5 nM
  HGC-27 cell growth inhibition rate: 10.3%
[3]; final concentration 1 nm
  HGC-27 cell growth inhibition rate: 21.6%
[3]; final concentration 10 nm
  HGC-27 cell growth inhibition rate: 45.0%
[3]; final concentration 25 nm
  HGC-27 cell growth inhibition rate: 76.9%
[3]; final concentration 50 nm
  HGC-27 cell growth inhibition rate: 85.2%
[3]; final concentration 100 nm
  HGC-27 cell growth inhibition rate: 92.2%
[3]; final concentration 500 nm
  HGC-27 cell growth inhibition rate: 94.7%
[3]; final concentration 5000 nm
  HGC-27 cell growth inhibition rate: 95.8%
